Results from patent US20260250318A1, “COMPOSITIONS AND METHODS FOR CROSSING THE BLOOD BRAIN BARRIER” (VOYAGER THERAPEUTICS, INC., priority 2022, published 2026).

Columns and labels:
[1] = tested on: brains, heart, liver, muscle, and DRG of the NHPs; assay: Maturation of TTM-001 and TTM-002 capsids, NGS enrichment in NHP tissues; assay type: in vivo; details: relative to AAV9 control
Outline: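 Variants carry mutations within and flanking the loop IV peptide insert: positions 450–466 were triplet-randomized, while positions 449–466 received low-frequency point mutations. The combined pool went into two NHPs, and each peptide was scored by NGS enrichment ratio against AAV9.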

brain = assay: Matured TTM-001 and TTM-002 variants, NGS enrichment in mouse brain; assay type: in vivo, mice; details: relative to AAV9 control
[2] = NGS fold-enrichment of matured AAV capsid variants, NHP brain, RNA
[3] = NGS fold-enrichment of RNA, NHP brain
[4] = NGS fold-enrichment, DRG of NHPs
[5] = NGS fold-enrichment, NHP liver DNA
[6] = NGS fold-enrichment, NHP liver RNA
[7] = NGS fold-enrichment, NHP muscle
[8] = NGS fold-enrichment, RNA, brain of NHPs
[9] = NGS fold-enrichment, heart of NHPs
[10] = NGS fold-enrichment, liver DNA of NHPs
[11] = NGS fold-enrichment, liver RNA of NHPs
[12] = NGS fold-enrichment, muscle of NHPs
[13] = NGS fold-enrichment, brain of mice
[14] = NGS fold-enrichment, mouse brain

Sequence | Fold Enrichment relative to AAV9, Brain (NHP) [1, 2] [fold] | Fold Enrichment relative to AAV9, DRG (NHP) ([1]; NHP DRG) [fold] | Fold Enrichment relative to AAV9, Heart (NHP) ([1]; NHP heart) [fold] | Fold Enrichment relative to AAV9, Liver DNA (NHP) ([1]; NHP liver, DNA) [fold] | Fold Enrichment relative to AAV9, Liver RNA (NHP) ([1]; NHP liver, RNA) [fold] | Fold Enrichment relative to AAV9, Muscle (NHP) ([1]; NHP muscle) [fold] | Fold Enrichment relative to AAV9, Brain (Mouse) (brain; mouse brain) [fold] | Fold Enrichment relative to AAV9, DRG (NHP) [1, 4] [fold] | Fold Enrichment relative to AAV9, Brain (NHP) [1, 8] [fold] | Fold Enrichment relative to AAV9, Heart (NHP) [1, 9] [fold] | Fold Enrichment relative to AAV9, Liver DNA (NHP) [1, 10] [fold] | Fold Enrichment relative to AAV9, Liver RNA (NHP) [1, 11] [fold] | Fold Enrichment relative to AAV9, Muscle (NHP) [1, 12] [fold] | Fold Enrichment relative to AAV9, Brain (Mouse) (brain; [13]) [fold] | further results
KNSLGSGSPHSKAQNQQT | 56.621 | 0.000 | 0.028 | 0.162 | 0.308 | 0.000 | 101.942 | – | – | – | – | – | – | – | –
KTIIGSGSPHSKAQNRHT | – | – | – | – | – | – | – | 0.000 | 217.176 | 0.000 | 0.000 | 0.000 | 0.000 | 210.515 | Fold Enrichment relative to AAV9, Brain (NHP) [1, 3]: 217.176 fold; Fold Enrichment relative to AAV9, DRG (NHP) ([1]; NGS fold-enrichment, NHP DRG): 0.000 fold; Fold Enrichment relative to AAV9, Heart (NHP) ([1]; NGS fold-enrichment, NHP heart): 0.000 fold; Fold Enrichment relative to AAV9, Liver DNA (NHP) [1, 5]: 0.000 fold; Fold Enrichment relative to AAV9, Liver RNA (NHP) [1, 6]: 0.000 fold; Fold Enrichment relative to AAV9, Muscle (NHP) [1, 7]: 0.000 fold; Fold Enrichment relative to AAV9, Brain (Mouse) (brain; [14]): 210.515 fold
KTEFVSGSPHSKAQNQQT | – | – | – | – | – | – | – | 0.000 | 59.306 | 0.000 | 0.276 | 0.196 | 0.000 | 69.788 | –
KTINGSGSPHSKSQNQHI | – | – | – | – | – | – | – | 0.000 | 59.438 | 0.099 | 0.108 | 0.111 | 0.000 | 76.025 | –
KSINGSGSPHSKAQAQQT | – | – | – | – | – | – | – | 0.000 | 66.464 | 0.711 | 0.111 | 0.148 | 0.000 | 78.451 | –
KTINVSGSPHSKAQGQQT | 55.870 | 0.000 | 0.191 | 0.040 | 0.592 | 0.000 | 87.211 | – | – | – | – | – | – | – | –
KTINGSGSPHSKAQSLQI | 53.778 | 0.000 | 0.186 | 0.047 | 0.022 | 0.000 | 51.543 | – | – | – | – | – | – | – | –
KAINGSGSPHSKAQDKQT | 54.452 | 0.000 | 0.000 | 0.223 | 0.044 | 0.057 | 56.004 | – | – | – | – | – | – | – | –
KTINGSGSPHSKAQYQHA | – | – | – | – | – | – | – | 0.000 | 64.435 | 0.000 | 0.097 | 0.993 | 0.024 | 57.278 | –
KTINGSGSPHSKAPGQQT | 54.071 | 0.065 | 0.000 | 0.179 | 0.542 | 0.004 | 73.440 | – | – | – | – | – | – | – | –
KTINGSGSPHSKAQRTMT | – | – | – | – | – | – | – | 0.000 | 80.388 | 0.022 | 1.025 | 1.812 | 0.170 | 100.248 | Fold Enrichment relative to AAV9, Brain (NHP) [1, 3]: 80.388 fold; Fold Enrichment relative to AAV9, DRG (NHP) ([1]; NGS fold-enrichment, NHP DRG): 0.000 fold; Fold Enrichment relative to AAV9, Heart (NHP) ([1]; NGS fold-enrichment, NHP heart): 0.022 fold; Fold Enrichment relative to AAV9, Liver DNA (NHP) [1, 5]: 1.025 fold; Fold Enrichment relative to AAV9, Liver RNA (NHP) [1, 6]: 1.812 fold; Fold Enrichment relative to AAV9, Muscle (NHP) [1, 7]: 0.170 fold; Fold Enrichment relative to AAV9, Brain (Mouse) (brain; [14]): 100.248 fold
KESDGSGSPHSKAQNQQT | – | – | – | – | – | – | – | 0.000 | 63.766 | 0.000 | 0.146 | 0.567 | 0.000 | 115.231 | –
KTSNASGSPHSKAQHQQT | – | – | – | – | – | – | – | – | – | – | – | – | – | – | Fold Enrichment relative to AAV9, Brain (NHP) [1, 3]: 165.206 fold; Fold Enrichment relative to AAV9, DRG (NHP) ([1]; NGS fold-enrichment, NHP DRG): 0.000 fold; Fold Enrichment relative to AAV9, Heart (NHP) ([1]; NGS fold-enrichment, NHP heart): 0.000 fold; Fold Enrichment relative to AAV9, Liver DNA (NHP) [1, 5]: 0.082 fold; Fold Enrichment relative to AAV9, Liver RNA (NHP) [1, 6]: 0.000 fold; Fold Enrichment relative to AAV9, Muscle (NHP) [1, 7]: 0.000 fold; Fold Enrichment relative to AAV9, Brain (Mouse) (brain; [14]): 40.558 fold
KTVNGSGSPHSKAQSLQT | 55.497 | 0.000 | 0.060 | 0.143 | 0.000 | 0.000 | 69.033 | – | – | – | – | – | – | – | –
KTENMSGSPHSKAQNQQT | – | – | – | – | – | – | – | 0.000 | 89.247 | 0.000 | 0.260 | 0.000 | 0.000 | 130.568 | Fold Enrichment relative to AAV9, Brain (NHP) [1, 3]: 89.247 fold; Fold Enrichment relative to AAV9, DRG (NHP) ([1]; NGS fold-enrichment, NHP DRG): 0.000 fold; Fold Enrichment relative to AAV9, Heart (NHP) ([1]; NGS fold-enrichment, NHP heart): 0.000 fold; Fold Enrichment relative to AAV9, Liver DNA (NHP) [1, 5]: 0.260 fold; Fold Enrichment relative to AAV9, Liver RNA (NHP) [1, 6]: 0.000 fold; Fold Enrichment relative to AAV9, Muscle (NHP) [1, 7]: 0.000 fold; Fold Enrichment relative to AAV9, Brain (Mouse) (brain; [14]): 130.568 fold
KTINGSGSPHSKAQLHHT | 56.815 | 0.025 | 0.000 | 0.368 | 0.712 | 0.010 | 58.418 | – | – | – | – | – | – | – | –
